The test system of one experiment is CHO K1 cells. Description: cells. It is filed as cell-based, Chinese hamster. The conditions noted are these: for EC50: Cricetulus griseus, Ant-44 0.5 μM. On the procedure:
Various embodiments involve the concept that a non-toxic PTI agent would inhibit the uptake of the cytotoxic polyamine conjugate Ant-44 (11) and rescue cells from Ant-44 induced toxicity. For example, using the IC50 dose of Ant-44, PTIs could be identified by measuring a compound's ability to block Ant-44 entry and rescue cells back to >90% viability. […] This toxic dose of Ant-44 was kept constant throughout the assay, while the candidate PTI compound was added in increasing concentrations up to its MTD.
Compounds (9 and 10) were tested at 5 μM and 7 μM. CHO K1 cells were treated in a 96-well plate with a toxic dose of Ant-44 (2.4 μM) alone and dosed with the candidate compounds (at 5 μM and 7 μM) and incubated for 48 h at 37° C.
To further explore this effect, development of various embodiments included modifying an original screen to use a lower dose of Ant-44 (0.5 μM) to improve the dose range of 9 and 10 that could be tested. In this regard, Ant-44 was dosed at 0.5 μM alone and in combination with increasing doses of compounds 9 (1666.177) and 10 (1666.255) and the CHO K1 cells were incubated for 48 h at 37° C., and the results are shown in FIG. 5. The red line represents the % cell viability of the Ant-44 only control. The Ant44 potentiation assay EC50 value is defined as the concentration of the candidate compound required to decrease the cell viability to half that of the Ant-44 only control. Both compounds 9 and 10 were effective at decreasing cell viability, when used in combination with Ant-44 in a dose dependent fashion.
FIG. 5 is an example according to various embodiments, illustrating potentiation of Ant-44 toxicity by compounds 9 and 10 in CHO K1 cells. Cells were incubated for 48 h at 37° C. with the respective compound and a fixed concentration of cytotoxic Ant-44 (0.5 μM). A 1 mM AG solution was incubated with the CHO K1 cells for 24 h prior to the addition of candidate compound. This was necessary to protect Ant-44 from the amine oxidases present in the media containing fetal bovine serum. […] Both compounds are nontoxic at the highest concentration tested (5 μM).

In a further experiment the test system is L3.6pl cells. As to the kind of experiment: Rescue by exogenous native polyamines in L3.6pl cells. The conditions noted are these: 72 h, polyamine 1 μM or 5 μM, compound 10 at toxic dose (5 μM or higher). The format is cell-based, human. On the procedure:
The question remained as to whether exogenous polyamines could enter and ‘rescue’ the cells back to the growth rate of untreated control. A series of experiments were conducted to determine if cells treated with compound 10 could be rescued by exogenous polyamines. To test this hypothesis, L3.6pl cells were incubated for 72 h with an increasing dose of compound 10 and a dose of one of the native polyamines (putrescine, spermidine, or spermine either at a fixed dose of 1 μM or 5 μM).
FIG. 10A is an example according to various embodiments, illustrating the inability of native polyamine putrescine (Put at 1 μM and 5 μM) to rescue L3.6pl cells treated with compound 10 (e.g., from 2-15 μM). FIG. 10B is an example according to various embodiments, illustrating inability of native polyamine spermidine (Spd at 1 μM and 5 μM) to rescue L3.6pl cells treated with compound 10 (e.g., from 2-15 μM). FIG. 10C is an example according to various embodiments, illustrating inability of the native polyamine spermine (Spm at 1 μM and 5 μM) to rescue L3.6pl cells treated with compound 10 (2-15 μM). The L3.6pl cells were incubated with 250 μM aminoguanidine (AG) for 24 h prior to the addition of compound 10, followed by 72 h incubation at 37° C. […]

Data on 1 compound can be found in patent US20210317090A1, “AMINO ACID DEPLETION AGENTS AS ANTIPROLIFERATIVE AGENTS” (University of Central Florida Research Foundation, Inc., priority 2018, published 2021).

The term EC50 denotes the concentration that produces a half-maximal response.

Like-named read-outs stand apart in the source and are kept apart here.

In the case of `CC(C)CCN1CCN(C(CNCc2ccccc2)CC2CCCCC2)CC1CC(C)C.Cl.Cl.Cl` (stereo not shown) [Compound 10, Benzyl-{3-cyclohexyl-2-[3-isobutyl-4-(3-methyl-butyl)-piperazin-1-yl]-propyl}-amine trihydrochloride salt], the “times more effective at potentiating Ant-44 than compound 9” value in the experiment with CHO K1 cells (CHO K1 cells) is “approximately 12.5 times”. Moreover, the EC50 was 60 nM in the experiment with CHO K1 cells (CHO K1 cells, 48 h (FIG. 5), read-out: Ant-44 potentiation EC50) and 60 nM in the experiment on CHO K1 cells (CHO cells, 48 h, read-out: Ant44 potentiation assay EC50). Also, the “rescue of treated cells by putrescine, spermidine or spermine” value in the experiment with L3.6pl cells was “none of the three native polyamines (at 1 μM or 5 μM) were able to rescue”.
